Data: ChEMBL document CHEMBL3885861, “Open TG-GATES”
Structures can show the parent of a compound that is named as a salt.

Species: Rattus norvegicus
Assay: Open TG-GATES - Regimen: Single
Assay type: toxicity, organism-based, Sprague-Dawley
Set-up: regimen Single, gender Male, age 6 weeks
Conditions: in vivo, ip, 240 mg/kg, route intraperitoneal injection, dose level Middle; for APTT / Bas / Eos / Fbg / Hb / Ht / Lym / MCH / MCHC / MCV / Mono / Neu / PT / Plat / RBC / Ret / WBC: tissue Blood; for KIDNEY_L / KIDNEY_R / KIDNEY_TOTAL: tissue Kidney; for LIVER: tissue Liver; for A/G / ALP / ALT / AST / BUN / CRE / Ca / Cl / DBIL / GLC / IP / K / LDH / Na / PL / RALB / TBIL / TC / TG / TP / gamma-GTP: tissue Plasma

CCOC(=O)/C=C\C(=O)OCC [DIETHYL MALEATE]
TERMINAL_BW (9 h): 195.9 g | APTT (9 h): 17 s | Bas (9 h): 0% | Eos (9 h): 1% | Fbg (9 h): 209 mg/dL | Hb (9 h): 13 g/dL | Ht (9 h): 38.5% | Lym (9 h): 74.8% | MCH (9 h): 21.8 pg | MCHC (9 h): 33.6% | MCV (9 h): 64.7 fL | Mono (9 h): 5.4% | Neu (9 h): 19% | PT (9 h): 12.2 s | Plat (9 h): 115.5 x10_4/uL | RBC (9 h): 595 x10_4/ul | Ret (9 h): 9.6% | WBC (9 h): 90.7 x10_2/uL | KIDNEY_L (9 h): 0.9 g | KIDNEY_R (9 h): 0.9 g | KIDNEY_TOTAL (9 h): 1.7 g | LIVER (9 h): 7.8 g | A/G (9 h): 2.2 | ALP (9 h): 849.2 IU/L | ALT (9 h): 34.6 IU/L | AST (9 h): 71.8 IU/L | BUN (9 h): 12.2 mg/dL | CRE (9 h): 0.4 mg/dL | Ca (9 h): 10.7 mg/dL | Cl (9 h): 108.2 meq/L | DBIL (9 h): 0.016 mg/dL | GLC (9 h): 188.4 mg/dL | IP (9 h): 9.7 mg/dL | K (9 h): 4.7 meq/L | LDH (9 h): 77.6 IU/L | Na (9 h): 139.4 meq/L | PL (9 h): 120.4 mg/dL | RALB (9 h): 3.5 g/dL | TBIL (9 h): 0.4 mg/dL | TC (9 h): 67.6 mg/dL | TG (9 h): 33.4 mg/dL | TP (9 h): 5.2 g/dL | gamma-GTP (9 h): 1.2 IU/L | TERMINAL_BW (24 h): 210.6 g | APTT (24 h): 15.9 s | Bas (24 h): 0% | Eos (24 h): 1% | Fbg (24 h): 218.4 mg/dL | Hb (24 h): 13.5 g/dL | Ht (24 h): 40% | Lym (24 h): 81.2% | MCH (24 h): 21.9 pg | MCHC (24 h): 33.6% | MCV (24 h): 65 fL | Mono (24 h): 4% | Neu (24 h): 14% | PT (24 h): 11.5 s | Plat (24 h): 114.2 x10_4/uL | RBC (24 h): 615.6 x10_4/ul | Ret (24 h): 9.9% | WBC (24 h): 113 x10_2/uL | KIDNEY_L (24 h): 0.9 g | KIDNEY_R (24 h): 0.9 g | KIDNEY_TOTAL (24 h): 1.9 g | LIVER (24 h): 10.2 g | A/G (24 h): 2.3 | ALP (24 h): 871.4 IU/L | ALT (24 h): 39.8 IU/L | AST (24 h): 68.2 IU/L | BUN (24 h): 17.6 mg/dL | CRE (24 h): 0.5 mg/dL | Ca (24 h): 10.8 mg/dL | Cl (24 h): 106.2 meq/L | DBIL (24 h): 0.02 mg/dL | GLC (24 h): 198 mg/dL | IP (24 h): 8.2 mg/dL | K (24 h): 5.2 meq/L | LDH (24 h): 125.2 IU/L | Na (24 h): 139 meq/L | PL (24 h): 145.4 mg/dL | RALB (24 h): 3.8 g/dL | TBIL (24 h): 0.4 mg/dL | TC (24 h): 78 mg/dL | TG (24 h): 99.2 mg/dL | TP (24 h): 5.5 g/dL | gamma-GTP (24 h): 1.8 IU/L
